Entries after “also recorded” stand apart in the source; their conditions may differ.
Experiment: Estimation of fine dust attachment on PMMA plate coated with artificial sebum
Conditions: compared to control group or other compounds
Protocol: 1) Method for Estimating Fine Dust Attachment
i) After applying artificial sebum of 1.3 mg/cm^2 on a PMMA plate, it was dried for 15 minutes.
ii) After applying a test formulation on the dried artificial sebum in the same amount, it was dried for 15 minutes (Noting was applied on the control group).
iii) The PMMA plate was attached on the internal top of the self-made chamber, and a pan on the bottom of the chamber was operated for 5 minutes, to expose 0.5 g substitutive fine dusts (brand name LM-YG0510, comprising strontium carbonate, alumina, europium oxide, and dysprosium oxide).
iv) Using a magnifying glass (Aphrodite-3, 50×), UV images were photographed (measuring 4 points per plate).
v) Using ImagePro Plus, the area of dust attachment was measured.
vi) The fine dust attachment rate was calculated by comparing the sample with the result of 3 times of experiments (Setting the fine dust attachment rate of the control group to 100).

Compound	effect of preventing fine dust attachment (in words)
CCCCC(CC)COC(=O)c1ccc(Nc2nc(Nc3ccc(C(=O)NC(C)(C)C)cc3)nc(Nc3ccc(C(=O)OCC(CC)CCCC)cc3)n2)cc1 (stereo not drawn) [Diethylhexyl butamido triazone]	excellent effect of preventing fine dust attachment; also recorded: excellent effect of reducing fine dust attachment
CC(C)(C)CC(C)(C)c1cc(Cc2cc(C(C)(C)CC(C)(C)C)cc(-n3nc4ccccc4n3)c2O)c(O)c(-n2nc3ccccc3n2)c1 [Methylene Bis-Benzotriazolyl tetramethyl butylphenol]	excellent effect of preventing fine dust attachment; also recorded: excellent effect of reducing fine dust attachment
O=S(=O)([O-])c1cc(S(=O)(=O)O)cc2[nH]c(-c3ccc(-c4nc5c(S(=O)(=O)[O-])cc(S(=O)(=O)O)cc5[nH]4)cc3)nc12.[Na+].[Na+] [disodium phenyl dibenzimidazole tetrasulfonate]	excellent effect of preventing fine dust attachment; also recorded: excellent effect of reducing fine dust attachment
CCCCC(CC)COC(=O)c1ccc(Nc2nc(Nc3ccc(C(=O)OCC(CC)CCCC)cc3)nc(Nc3ccc(C(=O)OCC(CC)CCCC)cc3)n2)cc1 (stereo not drawn) [ethylhexyl triazone]	excellent effect of preventing fine dust attachment; also recorded: excellent effect of reducing fine dust attachment
Nc1nc(N)nc(N)n1 [melamine, 1,3,5-triazine-2,4,6-triamine]	excellent effect of preventing fine dust attachment
trisbiphenyl triazine	excellent effect of preventing fine dust attachment; also recorded: excellent effect of reducing fine dust attachment

From patent US20200246241A1, “COSMETIC COMPOSITION FOR BLOCKING FINE DUST” (LG HOUSEHOLD & HEALTH CARE LTD., priority 2017, published 2020)
